Measurements: article PMC7238409, “Interactions of TiO2 Nanoparticles with Ingredients from Modern Lifestyle Products and Their Effects on Human Skin Cells” (Chemical Research in Toxicology, 2020)
Like-named read-outs stand apart in the source and are kept apart here.

Columns and labels:
[1] = system: nNHDF cells; test: Glutathione assay (total glutathione and GSSG, Tietze method); assay type: cell-based, human; conditions: 4 h, concentrations of Table 1, absence of TiO2 NPs
Experimental: Intracellular total and oxidized glutathione was determined by the earlier published Tietze method,[33] which was adapted to microtiter plates. Briefly, cells were lysed in 200 μL of 1% (w/v) sulfosalicylic acid (SSA), and 10 μL of the lysates were diluted with 90 μL of H2O and subsequently mixed with 100 μL of a reaction mixture containing 0.3 mM DTNB, 0.4 mM NADPH, 1 mM EDTA, and 1 U/mL glutathione reductase in 0.1 mM sodium phosphate buffer, pH = 7.5. The absorbance at 405 nm was continuously recorded over a time frame of 10 min. Glutathione concentrations were determined by comparing the increase in absorption of samples with the increase in absorption of standards with known concentrations. In order to determine the amount of oxidized glutathione (glutathione disulfide, GSSG), the samples were pretreated with 2-vinylpyridine (2-VP). The sample (cell lysate in SSA, 130 μL) was mixed with 5 μL of 2-VP, and the pH was subsequently adjusted to 6 using 0.2 M Tris-solution. Samples were incubated at room temperature for 60 min, and then 10 μL of the samples were assayed for glutathione, as described above.
Cellular protein contents were determined after lysis of the cells in 200 μL of 0.5 M NaOH according to the Lowry method[34] using bovine serum albumin as a standard.

[2] = system: nNHDF cells; test: Reactive oxygen species assay (DCFDA) with side scatter signal (SSC), flow cytometry; conditions: concentrations of Table 1, with or without 100 μg/mL TiO2 NPs; H2O2 100 μM
[3] = system: nNHDF cells; test: Annexin V/Propidiumiodide apoptosis/necrosis assay, flow cytometry; assay type: cell-based, human
[4] = Nanoparticle tracking analysis (NTA) of TiO2 NPs after incubation with MLP ingredients; assay type: physicochemical; conditions: 0.1 mg/mL TiO2 NPs + 0.1 mg/mL MLP ingredient, 60 min, diluted 1:100 in water
[5] = system: nNHDF cells; test: Neutral Red Uptake (NRU) assay, lysosomal integrity; assay type: cell-based, human; conditions: 24 h, absence of TiO2 NPs (control)
[6] = system: nNHDF cells; test: CellTiter-Blue (CTB) assay, metabolic activity; conditions: 24 h
[7] = read-out: EC50, metabolic activity, control, nNHDF cells, absence of TiO2 NPs (control)

## OO [H2O2, Hydrogen peroxide, reference compound]
[1]
  total cellular glutathione content: lowered significantly
[2]
  DCFDA signal (ROS): slight but significant increase in the DCFDA signal

## CCOC(=O)c1ccc(O)cc1 [EP, ethyl parabene]
[3]
  quadrant number lower left (viable cells), PI / Annexin V plot: 90.0
  quadrant number lower right, PI / Annexin V plot: 6.57
  quadrant number upper left, PI / Annexin V plot: 1.97
  quadrant number upper right, PI / Annexin V plot: 1.47
[4]
  # of particles (TiO2 NPs detectable): 764 ± 92 × 10^6
  particle diameter of TiO2 NPs, D50: 122 ± 2 nm
  particle diameter of TiO2 NPs, mean: 132 ± 5 nm
  particle diameter of TiO2 NPs, mode: 105 ± 8 nm
[5]
  EC50: 3540 ± 860 µM

## CCCOC(=O)c1ccc(O)cc1 [PP, propyl parabene]
[1]
  total cellular glutathione content: significantly lower total cellular glutathione content
[3]
  quadrant number lower left (viable cells), PI / Annexin V plot: 91.2
  quadrant number lower right, PI / Annexin V plot: 4.55
  quadrant number upper left, PI / Annexin V plot: 2.46
  quadrant number upper right, PI / Annexin V plot: 1.77
[6]; [7]
  EC50: 1040 ± 20 µM
[4]
  # of particles (TiO2 NPs detectable): 612 ± 210 × 10^6
  particle diameter of TiO2 NPs, D50: 119 ± 2 nm
  particle diameter of TiO2 NPs, mean: 126 ± 1 nm
  particle diameter of TiO2 NPs, mode: 103 ± 5 nm
[5]
  EC50: 1270 ± 340 µM

## Nc1ccc(N)cc1 [PPD, para-phenylenediamine]
[3]; 24 h, concentrations of Table 1, together with 100 μg/mL TiO2 NPs
  PI fluorescence (necrosis) compared to the control: significant difference in PI fluorescence
[6]; read-out: EC50 (cytotoxicity, end point not given), nNHDF cells, discussion
  EC50: ~1000 µM
[6]; [7]
  EC50: 1190 ± 170 µM
[2]
  DCFDA signal (ROS): decreased the amount of detectable ROS significantly
[4]
  # of particles (TiO2 NPs detectable): 1833 ± 93 × 10^6
  particle diameter of TiO2 NPs, D50: 129 ± 17 nm
  particle diameter of TiO2 NPs, mean: 138 ± 19 nm
  particle diameter of TiO2 NPs, mode: 122 ± 14 nm
[5]
  EC50: 1360 ± 50 µM

## COC(=O)c1ccc(O)cc1 [MP, methyl parabene]
[3]
  quadrant number lower right, PI / Annexin V plot: 6.31
  quadrant number upper left, PI / Annexin V plot: 2.69
  quadrant number upper right, PI / Annexin V plot: 1.42
[4]
  # of particles (TiO2 NPs detectable): 927 ± 146 × 10^6
  particle diameter of TiO2 NPs, D50: 122 ± 1 nm
  particle diameter of TiO2 NPs, mean: 131 ± 2 nm
  particle diameter of TiO2 NPs, mode: 106 ± 5 nm

## CC(C=O)Cc1ccc(C(C)(C)C)cc1 (stereo not shown) [Lilial, 3-(4-tert-butylphenyl)-2-methylpropanal]
[3]; human, 24 h
  quadrant number lower left (viable cells), PI / Annexin V plot: 94.2
  quadrant number lower right, PI / Annexin V plot: 1.60
  quadrant number upper left, PI / Annexin V plot: 3.26
  quadrant number upper right, PI / Annexin V plot: 0.94
[6]; Homo sapiens, read-out: EC50, metabolic activity, control
  EC50: 230 ± 50 µM
[4]
  # of particles (TiO2 NPs detectable): 552 ± 248 × 10^6
  particle diameter of TiO2 NPs, D50: 127 ± 6 nm
  particle diameter of TiO2 NPs, mean: 136 ± 5 nm
  particle diameter of TiO2 NPs, mode: 117 ± 11 nm
[5]; Homo sapiens
  EC50: 270 ± 70 µM

## CCCCOC(=O)c1ccc(O)cc1 [BP, butyl parabene]
[3]
  amount of viable cells: 79.8%
  quadrant number lower left (viable cells), PI / Annexin V plot: 92.9
  quadrant number lower right, PI / Annexin V plot: 3.13
  quadrant number upper left, PI / Annexin V plot: 2.57
  quadrant number upper right, PI / Annexin V plot: 1.38
[4]
  # of particles (TiO2 NPs detectable): 748 ± 137 × 10^6
  particle diameter of TiO2 NPs, D50: 122 ± 12 nm
  particle diameter of TiO2 NPs, mean: 136 ± 18 nm
  particle diameter of TiO2 NPs, mode: 111 ± 19 nm
[5]
  EC50: 690 ± 420 µM

## O=C1C=C(O)C(=O)c2ccccc21 [HNQ, 2-hydroxy-1,4-naphtoquinone]
[3]
  quadrant number lower left (viable cells), PI / Annexin V plot: 89.5
  quadrant number lower right, PI / Annexin V plot: 4.56
  quadrant number upper left, PI / Annexin V plot: 3.31
  quadrant number upper right, PI / Annexin V plot: 2.61
[2]
  DCFDA signal (ROS): decreased the amount of detectable ROS significantly
[4]
  # of particles (TiO2 NPs detectable): 498 ± 380 × 10^6
  particle diameter of TiO2 NPs, D50: 141 ± 20 nm
  particle diameter of TiO2 NPs, mean: 154 ± 14 nm
  particle diameter of TiO2 NPs, mode: 117 ± 18 nm
